From PMC11524579, “PRR adjuvants restrain high stability peptides presentation on APCs” (eLife, 2024) come the findings set out here.

Assay [1] relates to A20 cells. The assay is described as follows: MHC-II immunopeptidome (LC-MS/MS) of adjuvant-treated APCs. The assay is classed as cell-based, Mus musculus. The protocol:
A20 cells were cultured in T75 cell culture flasks (Corning, NY, USA). The expanded cells were pulsed with H. pylori lysates in combination with adjuvants MPLA, MDP, or CpG for 12 hr, collected, washed twice with sterile PBS, and divided into two fractions. One fraction, approximately 10^7 cells, was used for whole-proteome analysis. The remaining 10^8 cells were lysed in cold lysis buffer (1.0% w/v CHAPS, Protease Inhibitor tablet, and PMSF) for MHC-II complex immunoprecipitation. The cell lysates were centrifuged at 18,000×g for 20 min. The supernatant (containing the MHC–peptide complexes) was transferred into a new 1.5 mL microcentrifuge tube (Corning) containing a mixture of Sepharose CNBr-activated beads (Cytivia, Utah, USA) and 2 mg Anti-Mouse H2-IA^d/IE^d (M5/114) antibody (BioXcell, NH, USA). The immune complexes were captured on the beads by incubating on a rotor at 4℃ for 18 hr. Sequentially, the immune complexes were transferred to a polypropylene column (Bio-Rad Laboratories, Hercules, CA, USA) and washed with 10 mL buffer A (150 mM NaCl, 20 mM Tris, pH 8.0), 10 mL buffer B (400 mM NaCl, 20 mM Tris, pH 8.0), 10 mL buffer A, and 10 mL buffer C (Tris 20 mM, pH 8.0). The MHC-II–peptide complexes were eluted with 300 µL 10% glacial acetic acid (Macklin, Shanghai, China) three times. The eluate was stored at −80℃ until mass spectrometry analysis was performed. […]

Assay [2] has as its system A20 cells. The assay is described as follows: Whole-proteome LC-MS/MS of adjuvant-treated APCs, bacterial protein abundance. The assay is classed as cell-based, Mus musculus. The conditions noted are these: A20 cells 12 hr post-adjuvant stimulation with H. pylori antigens. How it is done:
A20 cells were cultured in T75 cell culture flasks (Corning, NY, USA). The expanded cells were pulsed with H. pylori lysates in combination with adjuvants MPLA, MDP, or CpG for 12 hr, collected, washed twice with sterile PBS, and divided into two fractions. One fraction, approximately 10^7 cells, was used for whole-proteome analysis. The remaining 10^8 cells were lysed in cold lysis buffer (1.0% w/v CHAPS, Protease Inhibitor tablet, and PMSF) for MHC-II complex immunoprecipitation. The cell lysates were centrifuged at 18,000×g for 20 min. The supernatant (containing the MHC–peptide complexes) was transferred into a new 1.5 mL microcentrifuge tube (Corning) containing a mixture of Sepharose CNBr-activated beads (Cytivia, Utah, USA) and 2 mg Anti-Mouse H2-IA^d/IE^d (M5/114) antibody (BioXcell, NH, USA). The immune complexes were captured on the beads by incubating on a rotor at 4℃ for 18 hr. Sequentially, the immune complexes were transferred to a polypropylene column (Bio-Rad Laboratories, Hercules, CA, USA) and washed with 10 mL buffer A (150 mM NaCl, 20 mM Tris, pH 8.0), 10 mL buffer B (400 mM NaCl, 20 mM Tris, pH 8.0), 10 mL buffer A, and 10 mL buffer C (Tris 20 mM, pH 8.0). The MHC-II–peptide complexes were eluted with 300 µL 10% glacial acetic acid (Macklin, Shanghai, China) three times. The eluate was stored at −80℃ until mass spectrometry analysis was performed.
Protein aliquots were mixed with 200 μL 8 M urea in Nanosep Centrifugal Devices (PALL) and centrifuged at 12,000×g at 20℃ for 20 min. All the centrifugation steps were performed under the same conditions, allowing for maximal concentration. Then, 200 μL 8 M urea solution with 10 mM DTT was added, and the reduction reaction was performed for 2 hr at 37°C. The solution was removed by centrifugation and 200 μL 8 M urea solution with 50 mM iodoacetamide (IAA) was added. The samples were incubated in the dark for 15 min at room temperature. The ultra-fraction tube was washed with 200 μL 8 M urea three times and 200 μL 25 mM ammonium bicarbonate three times by centrifugation at 12,000×g for 20 min at room temperature. […]

In assay [3] the test system is MHC-II H2-IA allele. Briefly: MHC-II competition-binding assay in vitro. The conditions noted are these: competition with 0.1 μM biotin-labeled control peptide, 50 nM purified MHC-II, 37 °C 24 hr, europium fluorescence; eight concentrations, three independent experiments.
Assay [4] deals with splenocytes. Briefly: IFN-γ ELISpot of splenocytes from peptide-pool immunized mice. The assay is classed as in vivo. The conditions noted are these: five BALB/c mice immunized with pool of 10 peptides (50 μg each) in CFA; for IFN-γ ELISpot response, day 10 (effective phase): threshold 3x median of OVA peptide. The protocol: Six- to eight-week-old SPF female BALB/c mice were immunized subcutaneously with a pool of synthetic peptides (50 μg for each peptide) emulsified in Complete Freunds Adjuvant (Sigma-Aldrich). At 10 and 28 days post-vaccination, the mice were euthanized, and the spleens were removed for ELISpot assays.
Splenocytes (500,000 cells/well) were treated with red blood cell lysis buffer and stimulated with 5 μM peptides in triplicate in ELISpot plates (Dakewe Biotech, Shenzhen, China) for 18 hr. IFN-γ secretion was detected using capture and detection antibodies and imaged using an ELISpot & FluoroSpot Reader (Mabtech, Stockholm, Sweden). OVA peptide323–339 (ISQAVHAAHAEINEAGR) and non-stimulated wells were used as negative controls. PMA (BioGems, NJ, USA) was used as a positive control.

Assay [5] concerns CD4+ T-cells. Briefly: IFN-γ ICS of in vitro expanded peptide-specific CD4+ T-cells, peptide pool and titrated peptides. The assay is classed as cell-based, BALB/c mice. The conditions noted are these: titrated peptides, response at 50 μM taken as 100%, n=3, ICS flow cytometry; compared with ureA #2 and ureA #3. How it is done:
(§1) Six- to eight-week-old SPF female BALB/c mice were immunized subcutaneously with 100 μg recombinant H pylori UreB (rUreB, purity >95%) emulsified in adjuvants CpG (20 μg/ mouse), MDP (30 μg/ mouse), and MPLA (10 μg/ mouse). Mice immunized with the same antigen without adjuvants were used as controls. Ten days later, the mice were euthanized with Carbon Dioxide (CO₂), and their spleens were harvested. Antigen-specific T-cells were expanded in vitro as described previously ([Li et al., 2015]). Briefly, the lymphocytes from spleens were isolated using a Ficoll–Hypaque (Dakewe, Shanghai, China) gradient, pulsed with 0.5 μM rUreB protein in the presence of 5 U/mL rmIL-2 (PeproTech, NJ, USA), and in vitro cultured in ‘RF-10’ medium consisting of RPMI 1640 (Gibco, CA, USA) supplemented with 10% fetal calf serum (Gibco), 1% L-glutamine, 1x 2-mercaptoethanol (Gibco), and 100 U/mL penicillin/ streptomycin. On day 5, the live cells were collected using a Ficoll–Hypaque gradient and cultured in a complete medium containing 20 U/mL rmIL-2. Half the medium was replaced when required.
Bulk-cultured T-cells were stimulated with 5 μM peptides for 5 hr in the presence of brefeldin A (BioLegend). The cells were collected and stained with specific antibodies against surface markers. […] The data were analyzed using FlowJo software (Tree Star, CA, USA). […]
(In general: Flow cytometry measures light scatter and fluorescence of single cells or particles in a stream.)

The test system of assay [6] is CD4+ T-cells. Briefly: IFN-γ ICS screen of UreB overlapping 18mer peptides on T-cells from adjuvant-vaccinated mice. The assay is classed as cell-based, BALB/c mice. The conditions noted are these: spleens day 10, expanded in vitro, 5 μM peptide 5 hr, ICS flow cytometry; for IFN-γ response of CD4+ T-cells to UreB 18mer peptides, CpG group: T-cells from mice vaccinated with UreB + CpG; for IFN-γ response of CD4+ T-cells to UreB 18mer peptides, CpG group / IFN-γ response of CD4+ T-cells to UreB 18mer peptides, MPLA group / IFN-γ response of CD4+ T-cells to UreB 18mer peptides, MDP group: representative of three independent experiments; for IFN-γ response of CD4+ T-cells to UreB 18mer peptides, MPLA group: T-cells from mice vaccinated with UreB + MPLA; for IFN-γ response of CD4+ T-cells to UreB 18mer peptides, MDP group: T-cells from mice vaccinated with UreB + MDP. How it is done:
as §1
Bulk-cultured T-cells were stimulated with 5 μM peptides for 5 hr in the presence of brefeldin A (BioLegend). The cells were collected and stained with specific antibodies against surface markers. Intracellular cytokine staining was performed after fixation. Cells were acquired using an LSRFortessa Flow Cytometer (BD Biosciences) or a Navios Flow Cytometer (Beckman Coulter, FL, USA). The data were analyzed using FlowJo software (Tree Star, CA, USA).

As for `CC(=O)N[C@@H]1[C@@H](O[C@H](C)C(=O)N[C@@H](C)C(=O)N[C@H](CCC(=O)O)C(N)=O)[C@H](O)[C@@H](CO)O[C@H]1O` [MDP], the “Number of MHC peptides identified” value in assay [1] (A20 cells treated with adjuvant + H. pylori antigens 12 hr, 10^8 cells, MHC-II IP, LC-MS/MS, mean of n=3 biological replicates) is 3257. Also, the “Effect of adjuvant on peptide repertoires presented by APCs” value in assay [1] (A20 cells, H. pylori antigens + adjuvant 12 hr, immunopeptidome) is recorded as “not”. Also, the “% H. pylori: percentage of bacterial protein abundances in the total whole proteome” value amounted to 0.95% in assay [2] (sample (replicate) 1), 1.04% in assay [2] (sample (replicate) 2) and 1.09% in assay [2] (sample (replicate) 3).
In the case of AFIDAEHALDVHYAKR [recA #23], the “Binding stability for MHC-II” value in assay [3] is recorded as “low-stability”. In addition, in assay [4], the “IFN-γ ELISpot response, day 28 (memory phase)” value is “not weaker than that of the other peptides” and the “IFN-γ ELISpot response, day 10 (effective phase)” value is listed as “positive responses”. Further, the “IFN-γ response of expanded CD4+ T-cells to titrated peptide” value in assay [5] is “more robust CD4^+ T-cell responses at lower peptide concentrations”.
For the molecule ASMIHEVGIEAMFPDGTK [ureA #2], in assay [3], the “Binding stability for MHC-II” value is “highly stable”. Besides, the “IFN-γ ELISpot response, day 10 (effective phase)” value in assay [4] was “positive responses”.
On the same counts, the results for KMLELANQIKTNLSAIPQ [hopZ #53] are “highly stable” and “positive responses”.
Turning to “U313–330: UreB overlapping 18mer peptide (EHMDMLMVCHHLDKSIKE; UniProt P69996 313-330, looked up, fragment)”, in assay [6], the “IFN-γ response of CD4+ T-cells to UreB 18mer peptides, CpG group” value is on record as “dominant response” and the “IFN-γ response of CD4+ T-cells to UreB 18mer peptides, MPLA group” value is recorded as “primarily recognized”.
For “U403–426: UreB region covered by overlapping 18mer peptides (KRYLSKYTINPAIAHGISEYVGSV; UniProt P69996 403-426, looked up, fragment)”, the “IFN-γ response of CD4+ T-cells to UreB 18mer peptides, CpG group” value in assay [6] is “dominant response”.
“U409–426: UreB overlapping 18mer peptide (YTINPAIAHGISEYVGSV; UniProt P69996 409-426, looked up, fragment)”: the “IFN-γ response of CD4+ T-cells to UreB 18mer peptides, MDP group” value in assay [6] is “dominant response”.
On the same count and under the same terms, to “U481–498: UreB overlapping 18mer peptide (HHGKAKYDANITFVSQAA; UniProt P69996 481-498, looked up, fragment)” belongs “dominant response”.
For “U481–U504: UreB dominant region covered by overlapping 18mer peptides (HHGKAKYDANITFVSQAAYDKGIK; UniProt P69996 481-504, looked up, fragment)”, in assay [6] (T-cells from mice vaccinated with UreB without adjuvant), the “IFN-γ response of CD4+ T-cells to UreB 18mer peptides, no-adjuvant group” value was “dominant region”.
“U505–522: UreB overlapping 18mer peptide (EELGLERQVLPVKNCRNI; UniProt P69996 505-522, looked up, fragment)”: the “IFN-γ response of CD4+ T-cells to UreB 18mer peptides, MPLA group” value in assay [6] was “primarily recognized”.
Turning to YVEAVALISAHIMEEAR [ureA #3], the “Binding stability for MHC-II” value in assay [3] is on record as “highly stable”. For the same molecule, in assay [4], the “IFN-γ ELISpot response, day 10 (effective phase)” value was “positive responses”.
